Values after ≈ are worked out from the molar mass of the structure shown.
Assays:
Format in all cases: cell-based
[1] = system: B. megaterium; assay: minimum inhibitory concentration (MIC) method; settings: 37° C. 24 hours
Method: (§1) Another method of determining antimicrobial activity is to assess the Minimum inhibitory concentration (MIC) of the composition under test. […] Thereafter, increased concentrations will have a limiting effect on growth, until the concentration is reached where no growth relative to the control is observed. That point of no growth is the minimum inhibitory concentration. […] A positive control with the bacterium alone was prepared as well as an ethanol control. The tubes were incubated at 37° C. for 24 hours and growth of the bacterium was determined by observing the change in turbidity.

[2] = system: S. salivarius; assay: minimum inhibitory concentration (MIC) method; settings: 37° C. 24 hours
Method: as §1

[3] = system: B. subtilis; assay: minimum inhibitory concentration (MIC) method; settings: 37° C. 24 hours
Method: as §1

[4] = system: S. saprophyticus; assay: minimum inhibitory concentration (MIC) method; settings: 37° C. 24 hours
Method: as §1, with “turbidity. […] Since the filing of the original application Ser. […] Pseudomonas fluorescens, Pseudomonas aeruginosa, Proteus vulgaris, Serratia marcescens, Proteus mirabilis and Enterobacter clocae.” for “turbidity.”

[5] = system: Staphlococcus saprophyticus; assay: paper disc diffusion susceptibility (Kirby-Bauer) method; settings: for zone of inhibition, Xanthohumol Avg / zone of inhibition, Xanthohumol Expt #1 / zone of inhibition, Xanthohumol Expt #2 / zone of inhibition, β-acid Avg / zone of inhibition, β-acid Exp #1: S. saprophyticus, tobramycin 10 μg on disc; for zone of inhibition, Experiment 1 Control / zone of inhibition, Experiment 2 Control: antibiotic disc alone
Description: (§2) The first test method to be applied was the paper disc diffusion susceptibility method. In this method a filter paper disc impregnated with a chemical is placed on agar, and the chemical will diffuse from the disc into the agar. If an organism is placed on the agar, it will not grow in the area around the disc if it is susceptible to the chemical. This area of no growth around the disc is known as the zone of inhibition. This disc diffusion method for antibiotic susceptibility is known as the Kirby-Bauer method. In testing the effectiveness of various antibiotics, all factors, e.g., the agar utilized, the depth of the agar, the amount of organism used, and incubation conditions, are maintained constant for the various organisms and antibiotics being tested. […] The size of the zone of inhibition of the particular antimicrobial substance may also be influenced by the diffusion capability of that substance.
(§3) In performing the disc diffusion method tests, a bacterial suspension having an inoculum density of approximately 1×10^8 CFU/ml (colony forming units) was added to 10 ml trypticase soy agar at 46° C. It was mixed thoroughly by vortexing and then poured into a plastic Petri dish. After hardening of the agar, filter paper discs (φ7 mm.) made from Whatman filter paper No. 1 that had been impregnated by the manufacturer, Becton Dickinson, Inc., with the suitable antibiotic, were placed on the agar. In this series of tests the ability of each antibiotic per se to control the growth of the bacteria was measured.
(§4) Another series of agar containing Petri dishes was then prepared using the same bacteria and density thereof as had been prepared for the prior test series. However, here hop compounds were also present in the agar. The hop extract, either lupulone, humulone or xanthohumol, was dissolved in ethanol. While certain of the hop components are only slightly soluble in water, they are very soluble in ethanol. An ethanol control was prepared in the same way.
(§5) The size of the inhibition zones was measured to the nearest mm.
(§6) The concentration of β-acid and xanthohumol is set forth in μg/ml. The zone of inhibition was measured in centimeters. […]

[6] = system: B. megaterium; assay: paper disc diffusion susceptibility method; settings: tobramycin 10 μg on disc
Description: as §2, §3, §4, §5, §6

[7] = system: S. salivarius; assay: paper disc diffusion susceptibility method; settings: tobramycin 10 μg on disc
Description: as §2, §3, §4, §5, §6

[8] = system: B. subtilis; assay: paper disc diffusion susceptibility method; settings: tobramycin 10 μg on disc
Description: as §2, §3, §4, §5, §6

[9] = 24 hours, listed as polymyxin B
[10] = antibiotic disc with 0.2 μg/ml β-resin in the agar, 24 hours

For `COc1cc(O)c(CC=C(C)C)c(O)c1C(=O)/C=C/c1ccc(O)cc1` [X, xanthohumol], the MIC ([1]; Priestia megaterium, exp 2, read-out: MIC, agent alone) was 10 µg/mL (≈ 28.2 µM), the “MIC, agent alone” value ([1]; exp 1) was 10 µg/mL (≈ 28.2 µM) and the MIC ([2]; Streptococcus salivarius, exp 1, read-out: MIC, agent alone) was less than 10 µg/mL. For the same compound, the “MIC, agent alone” value ([2]; exp 2) was less than 10 µg/mL, the MIC ([3]; Bacillus subtilis, exp 1, read-out: MIC, agent alone) was greater than 1 µg/mL and the “MIC, agent alone” value ([3]; exp 1) was greater than 1 µg/mL. For the same compound, the “MIC, agent alone” value ([3]; exp 2) was greater than 1 µg/mL and the MIC ([4]; Staphylococcus saprophyticus, exp 1, read-out: MIC, agent alone) was 1 to 10 µg/mL (≈ 2.82 to 28.2 µM).

With `NC[C@H]1O[C@H](O[C@H]2[C@H](O)[C@@H](O[C@H]3O[C@H](CO)[C@@H](O)[C@H](N)[C@H]3O)[C@H](N)C[C@@H]2N)[C@H](N)C[C@@H]1O` [tobramycin] the “zone of inhibition, Xanthohumol Avg” value ([5]; xanthohumol 0 μg/ml) was 0.95 centimeters, the “zone of inhibition, Xanthohumol Expt #1” value ([5]; xanthohumol 0 μg/ml) was 0.9 centimeters and the “zone of inhibition, Xanthohumol Expt #2” value ([5]; xanthohumol 0 μg/ml) was 1.0 centimeters. For the same compound, the “zone of inhibition, Xanthohumol Avg” value ([5]; xanthohumol 3 μg/ml) was 1.5 centimeters, the “zone of inhibition, Xanthohumol Expt #1” value ([5]; xanthohumol 3 μg/ml) was 1.5 centimeters and the “zone of inhibition, Xanthohumol Expt #2” value ([5]; xanthohumol 3 μg/ml) was 1.5 centimeters. The “zone of inhibition, β-acid Avg” value ([5]; β-acid 0 μg/ml) was 0.9 centimeters, the “zone of inhibition, β-acid Exp #1” value ([5]; β-acid 0 μg/ml) was 0.9 centimeters and the “zone of inhibition, β-acid Avg” value ([5]; β-acid 3 μg/ml) was 1.6 centimeters. For the same compound, the “zone of inhibition, β-acid Exp #1” value ([5]; β-acid 3 μg/ml) was 1.6 centimeters, the “zone of inhibition, Xanthohumol Avg” value ([6]; xanthohumol 0 μg/ml) was 0.7 centimeters and the “zone of inhibition, Xanthohumol Expt #1” value ([6]; xanthohumol 0 μg/ml) was 0.8 centimeters. The “zone of inhibition, Xanthohumol Expt #2” value ([6]; xanthohumol 0 μg/ml) was 0.6 centimeters, the “zone of inhibition, Xanthohumol Avg” value ([6]; xanthohumol 3 μg/ml) was 1.05 centimeters and the “zone of inhibition, Xanthohumol Expt #1” value ([6]; xanthohumol 3 μg/ml) was 1.1 centimeters. For the same compound, the “zone of inhibition, Xanthohumol Expt #2” value ([6]; xanthohumol 3 μg/ml) was 1.0 centimeters, the “zone of inhibition, β-acid Avg” value ([6]; β-acid 0 μg/ml) was 0.7 centimeters and the “zone of inhibition, β-acid Exp #1” value ([6]; β-acid 0 μg/ml) was 0.8 centimeters. The “zone of inhibition, β-acid Exp #2” value ([6]; β-acid 0 μg/ml) was 0.6 centimeters, the “zone of inhibition, β-acid Avg” value ([6]; β-acid 3 μg/ml) was 0.95 centimeters and the “zone of inhibition, β-acid Exp #1” value ([6]; β-acid 3 μg/ml) was 1.1 centimeters. For the same compound, the “zone of inhibition, β-acid Exp #2” value ([6]; β-acid 3 μg/ml) was 0.8 centimeters, the “zone of inhibition, Xanthohumol Avg” value ([7]; xanthohumol 0 μg/ml) was 0.55 centimeters and the “zone of inhibition, Xanthohumol Expt #1” value ([7]; xanthohumol 0 μg/ml) was 0.6 centimeters. The “zone of inhibition, Xanthohumol Expt #2” value ([7]; xanthohumol 0 μg/ml) was 0.5 centimeters, the “zone of inhibition, Xanthohumol Avg” value ([7]; xanthohumol 10 μg/ml) was 1.35 centimeters and the “zone of inhibition, Xanthohumol Expt #1” value ([7]; xanthohumol 10 μg/ml) was 1.4 centimeters. For the same compound, the “zone of inhibition, Xanthohumol Expt #2” value ([7]; xanthohumol 10 μg/ml) was 1.3 centimeters, the “zone of inhibition, β-acid Avg” value ([7]; β-acid 0 μg/ml) was 0.55 centimeters and the “zone of inhibition, β-acid Exp #1” value ([7]; β-acid 0 μg/ml) was 0.6 centimeters. For the same compound, the “zone of inhibition, β-acid Exp #2” value ([7]; β-acid 0 μg/ml) was 0.5 centimeters, the “zone of inhibition, β-acid Avg” value ([7]; β-acid 30 μg/ml) was 0.65 centimeters and the “zone of inhibition, β-acid Exp #1” value ([7]; β-acid 30 μg/ml) was 0.7 centimeters. For the same compound, the “zone of inhibition, β-acid Exp #2” value ([7]; β-acid 30 μg/ml) was 0.6 centimeters, the “zone of inhibition, Xanthohumol Avg” value ([8]; xanthohumol 0 μg/ml) was 1.0 centimeters and the “zone of inhibition, Xanthohumol Expt #1” value ([8]; xanthohumol 0 μg/ml) was 1.1 centimeters. For the same compound, the “zone of inhibition, Xanthohumol Expt #2” value ([8]; xanthohumol 0 μg/ml) was 0.9 centimeters, the “zone of inhibition, Xanthohumol Avg” value ([8]; xanthohumol 3 μg/ml) was 1.5 centimeters and the “zone of inhibition, Xanthohumol Expt #1” value ([8]; xanthohumol 3 μg/ml) was 1.6 centimeters. The “zone of inhibition, Xanthohumol Expt #2” value ([8]; xanthohumol 3 μg/ml) was 1.4 centimeters, the “zone of inhibition, β-acid Avg” value ([8]; β-acid 0 μg/ml) was 1.0 centimeters and the “zone of inhibition, β-acid Exp #1” value ([8]; β-acid 0 μg/ml) was 1.1 centimeters. The “zone of inhibition, β-acid Exp #2” value ([8]; β-acid 0 μg/ml) was 0.9 centimeters, the “zone of inhibition, β-acid Avg” value ([8]; β-acid 3 μg/ml) was 1.3 centimeters and the “zone of inhibition, β-acid Exp #1” value ([8]; β-acid 3 μg/ml) was 1.4 centimeters. For the same compound, the “zone of inhibition, β-acid Exp #2” value ([8]; β-acid 3 μg/ml) was 1.2 centimeters.

For polymyxin B, the “MIC, agent alone” value ([1]; exp 1) was greater than 100 µg/mL, the “MIC, agent alone” value ([1]; exp 2) was greater than 100 µg/mL and the “MIC, agent alone” value ([2]; exp 1) was greater than 100 µg/mL. For the same compound, the “MIC, agent alone” value ([2]; exp 2) was greater than 100 µg/mL, the “zone of inhibition, Experiment 1 Control” value ([5]; 24 hours) was 0 mm and the “zone of inhibition, Experiment 2 Control” value ([5]; 24 hours) was 0 mm. For the same compound, the “zone of inhibition, Experiment 1 Control” value [5, 9] was “no inhibition zone whatsoever”, the “zone of inhibition, Experiment 2 Control” value [5, 9] was “zero” and the “zone of inhibition, Experiment 1 0.2 μg/ml β-resin” value [5, 10] was 9 mm. For the same compound, the “zone of inhibition, Experiment 2 0.2 μg/ml β-resin” value [5, 10] was 8 mm, the “MIC, agent alone” value ([4]; exp 1) was greater than 100 µg/mL and the “MIC, agent alone” value ([4]; exp 2) was greater than 100 µg/mL.

Reference: patent publication US8367086B1, “Process and product for inhibiting or preventing bacterial infections” (S.S. Steiner, Inc., priority 2004, dated 2013)
